# Results taken from ChEMBL document CHEMBL1201862, “PubChem BioAssay data set” (2004).
#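 Assay format: 96-well plates, 48-hour exposure. GI50 = concentration required for 50% inhibition of growth.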 Activity calls are given as the source filed them. Rule as the data show it: active = GI50 up to about 1.1 µM and inactive = higher.
# How the values were obtained:
# Test in all cases: growth of human tumour cells (NCI), 48 h
# [1] = test system: RXF 393
# [2] = test system: NCI-H226
# [3] = test system: BT-549
# [4] = test system: ACHN
# [5] = test system: NCI-H23
# [6] = test system: NCI-H460
# [7] = test system: SK-MEL-2
# [8] = test system: 786-0
# [9] = test system: SF-268
# [10] = test system: TK-10
# [11] = test system: HL-60
# [12] = test system: M14
# [13] = test system: U-251
# [14] = test system: T47D
# [15] = test system: LOX IMVI
# [16] = test system: OVCAR-4
# [17] = test system: SF-295
# [18] = test system: OVCAR-3
# [19] = test system: SK-OV-3
# [20] = test system: UO-31
# [21] = test system: SW-620
# [22] = test system: IGROV-1
# [23] = test system: SNB-19
# [24] = test system: SK-MEL-5
# [25] = test system: COLO 205
# [26] = test system: RPMI-8226
# [27] = test system: MDA-MB-435
# [28] = test system: NCI-H522
# [29] = test system: EKVX
# [30] = test system: PC-3
# [31] = test system: KM12
# [32] = test system: HOP-62
# [33] = test system: SN12C
# [34] = test system: UACC-62
# [35] = test system: OVCAR-5
# [36] = test system: CAKI-1
# [37] = test system: DU-145
# [38] = test system: MOLT-4
# [39] = test system: HOP-92
# [40] = test system: OVCAR-8
# [41] = test system: HCT-116
# [42] = test system: UACC-257
# [43] = test system: MDA-N
# [44] = test system: Hs-578T
# [45] = test system: NCI/ADR-RES
# [46] = test system: CCRF-CEM
# [47] = test system: A498
# [48] = test system: K562
# [49] = test system: SR
# [50] = test system: HCT-15
# [51] = test system: HT-29
# [52] = test system: Malme-3M
# [53] = test system: SF-539
# [54] = test system: MDA-MB-231
# [55] = test system: A549
# [56] = test system: SK-MEL-28
# [57] = test system: SNB-75
# [58] = test system: HCC 2998
# [59] = test system: MCF7
structure (smiles),measurement,setting,value
Cc1ccc2c(c1)NC(=O)CCSSCCC(=O)N2,GI50,[1],> 100 µM (inactive)
same,GI50,[2],> 100 µM (inactive)
same,GI50,[3],> 100 µM (inactive)
same,GI50,[4],> 100 µM (inactive)
same,GI50,[5],> 100 µM (inactive)
same,GI50,[6],> 100 µM (inactive)
same,GI50,[7],> 100 µM (inactive)
same,GI50,[8],> 100 µM (inactive)
same,GI50,[9],> 100 µM (inactive)
same,GI50,[10],> 100 µM (inactive)
same,GI50,[11],> 100 µM (inactive)
same,GI50,[12],> 100 µM (inactive)
same,GI50,[13],> 100 µM (inactive)
same,GI50,[14],> 100 µM (inactive)
same,GI50,[15],> 100 µM (inactive)
same,GI50,[16],> 100 µM (inactive)
same,GI50,[17],> 100 µM (inactive)
same,GI50,[18],> 100 µM (inactive)
same,GI50,[19],> 100 µM (inactive)
same,GI50,[20],> 100 µM (inactive)
same,GI50,[21],> 100 µM (inactive)
same,GI50,[22],> 100 µM (inactive)
same,GI50,[23],> 100 µM (inactive)
same,GI50,[24],> 100 µM (inactive)
same,GI50,[25],> 100 µM (inactive)
same,GI50,[26],> 100 µM (inactive)
same,GI50,[27],> 100 µM (inactive)
same,GI50,[28],> 100 µM (inactive)
same,GI50,[29],> 100 µM (inactive)
same,GI50,[30],> 100 µM (inactive)
same,GI50,[31],> 100 µM (inactive)
same,GI50,[32],> 100 µM (inactive)
same,GI50,[33],> 100 µM (inactive)
same,GI50,[34],> 100 µM (inactive)
same,GI50,[35],> 100 µM (inactive)
same,GI50,[36],> 100 µM (inactive)
same,GI50,[37],> 100 µM (inactive)
same,GI50,[38],> 100 µM (inactive)
same,GI50,[39],> 100 µM (inactive)
same,GI50,[40],> 100 µM (inactive)
same,GI50,[41],> 100 µM (inactive)
same,GI50,[42],> 100 µM (inactive)
same,GI50,[43],> 100 µM (inactive)
same,GI50,[44],> 100 µM (inactive)
same,GI50,[45],> 100 µM (inactive)
same,GI50,[46],> 100 µM (inactive)
same,GI50,[47],> 100 µM (inactive)
same,GI50,[48],> 100 µM (inactive)
same,GI50,[49],> 100 µM (inactive)
same,GI50,[50],> 100 µM
same,GI50,[51],> 100 µM (inactive)
same,GI50,[52],> 100 µM (inactive)
same,GI50,[53],> 100 µM (inactive)
same,GI50,[54],> 100 µM (inactive)
same,GI50,[55],> 100 µM (inactive)
same,GI50,[56],> 100 µM (inactive)
Cc1ccc(C(=O)Nc2ccc(S(=O)(=O)O)c3cc(S(=O)(=O)O)cc(S(=O)(=O)O)c23)cc1N,GI50,[1],> 100 µM (inactive)
same,GI50,[2],> 100 µM (inactive)
same,GI50,[3],> 100 µM (inactive)
same,GI50,[4],> 100 µM (inactive)
same,GI50,[5],> 100 µM (inactive)
same,GI50,[6],> 100 µM (inactive)
same,GI50,[7],> 100 µM (inactive)
same,GI50,[8],> 100 µM (inactive)
same,GI50,[9],> 100 µM (inactive)
same,GI50,[10],> 100 µM (inactive)
same,GI50,[11],> 100 µM (inactive)
same,GI50,[12],> 100 µM (inactive)
same,GI50,[14],> 100 µM (inactive)
same,GI50,[16],> 100 µM (inactive)
same,GI50,[17],2.75 µM (inactive)
same,GI50,[18],> 100 µM (inactive)
same,GI50,[57],> 100 µM (inactive)
same,GI50,[19],91.6 µM (inactive)
same,GI50,[20],> 100 µM (inactive)
same,GI50,[21],> 100 µM (inactive)
same,GI50,[22],> 100 µM (inactive)
same,GI50,[23],> 100 µM (inactive)
same,GI50,[24],> 100 µM (inactive)
same,GI50,[25],> 100 µM (inactive)
same,GI50,[28],> 100 µM (inactive)
same,GI50,[29],> 100 µM (inactive)
same,GI50,[30],> 100 µM (inactive)
same,GI50,[31],> 100 µM (inactive)
same,GI50,[58],> 100 µM (inactive)
same,GI50,[32],> 100 µM (inactive)
same,GI50,[33],> 100 µM (inactive)
same,GI50,[34],> 100 µM (inactive)
same,GI50,[35],> 100 µM (inactive)
same,GI50,[36],> 100 µM (inactive)
same,GI50,[59],> 100 µM (inactive)
same,GI50,[37],> 100 µM (inactive)
same,GI50,[38],> 100 µM (inactive)
same,GI50,[40],> 100 µM (inactive)
same,GI50,[41],> 100 µM (inactive)
same,GI50,[42],> 100 µM (inactive)
same,GI50,[43],> 100 µM (inactive)
same,GI50,[44],> 100 µM (inactive)
same,GI50,[45],> 100 µM (inactive)
same,GI50,[46],> 100 µM (inactive)
same,GI50,[47],> 100 µM (inactive)
same,GI50,[48],> 100 µM (inactive)
same,GI50,[49],> 100 µM (inactive)
same,GI50,[50],> 100 µM
same,GI50,[51],> 100 µM (inactive)
same,GI50,[52],> 100 µM (inactive)
same,GI50,[53],> 100 µM (inactive)
same,GI50,[54],> 100 µM (inactive)
same,GI50,[56],> 100 µM (inactive)
